Assay results as given in patent US8829011B2 (Janssen Pharmaceutica NV, priority 2008, dated 2014).
Counter-ions that a name gives are not always drawn.

Legend:
rat 5-HT7a receptor = target: T1, rat 5-HT7a receptor (Rattus norvegicus, UniProt P32305); test: Affinity for 5-HT7 receptor binding sites (competition radioligand binding, [3H]5-CT); conditions: membranes of HEK-293 cells with rat 5-HT7a; 1 nM [3H]5-CT; * = tested as hydrochloride salt
T1 construct: expressed in transfected cells; host or cells: HEK-293
Description: (§1) Stock drug solutions (10 mM) were prepared in DMSO (the final assay concentration of DMSO not exceeding 0.4%). Drug dilutions were prepared in assay buffer.
(§2) Sigmoidal inhibition curves were generated and fitted by nonlinear regression analysis (GraphPad Prism).
1. Affinity for 5-HT7 Receptor Binding Sites
The affinity of the compounds described in this invention for the 5-HT7 receptor binding site was evaluated by single competition radioligand binding assay. The assay was performed on membranes prepared from HEK-293 cells that had been subjected to stable transfection with the rat 5-HT7a receptor (GB: NM022938). Cells were scraped from the culture plates, suspended in Tris-HCl 50 mM pH 7.5 and collected through centrifugation (1000 rpm for 5 min). The cell pellets were homogenized (Polytron, 15 s, setting 5) in 50 mM Tris-HCl (pH 7.5), 5 mM EDTA. Following centrifugation (15,000 rpm for 25 min), membranes (135 μg protein/mL) were resuspended in the same buffer and incubated for 60 min at RT with 1 nM [^3H]5-CT in the presence of increasing concentration of test compounds. Nonspecific binding was defined in the presence of 10 μM 5-HT. Incubation was stopped by rapid filtration using the cell harvester (Packard). Radioactivity was counted in a TopCount-NXT (Packard). Experiments were conducted in triplicate.

[1] = target: T2, human recombinant 5-HT2C receptor (Homo sapiens, UniProt P28335); test: Affinity for 5-HT2C receptor binding sites (competitive radioligand binding, [3H]mesulergine); conditions: membranes of CHO with h5-HT2C, * = tested as hydrochloride salt
T2 construct: expressed in transfected cells; host or cells: CHO
T2 sequence (P28335 33-458): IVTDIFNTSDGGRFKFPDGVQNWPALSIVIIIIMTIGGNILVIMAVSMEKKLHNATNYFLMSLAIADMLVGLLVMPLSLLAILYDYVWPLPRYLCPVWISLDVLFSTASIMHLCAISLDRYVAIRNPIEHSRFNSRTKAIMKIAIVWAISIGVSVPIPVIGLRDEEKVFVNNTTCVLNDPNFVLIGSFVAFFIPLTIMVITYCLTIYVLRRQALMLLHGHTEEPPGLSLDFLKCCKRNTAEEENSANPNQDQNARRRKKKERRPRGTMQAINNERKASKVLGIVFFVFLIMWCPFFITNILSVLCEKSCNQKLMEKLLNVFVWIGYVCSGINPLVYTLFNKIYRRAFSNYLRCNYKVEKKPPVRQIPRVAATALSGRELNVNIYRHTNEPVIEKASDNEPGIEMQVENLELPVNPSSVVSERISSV
Description: as §1, §2
(§3) 2. Affinity for 5HT2 Receptor Binding Sites
(§4) Receptor binding was performed using the human recombinant 5-HT2A (GB: X57830), 5-HT2B (GB: Z36748) and 5-HT2C (GB: M81778) receptors. The affinity of the compounds for the 3 different human 5-HT2 receptor subtypes was evaluated by competitive radioligand binding assays using [^3H]ketanserin (h5-HT2A) or [^3H]mesulergine (h5-HT2B and h5-HT2C). The assays were performed on membranes prepared from NIH3T3 stably transfected with h5-HT2A or CHO stably transfected with h5-HT2B and h5-HT2C.

[2] = target: T3, human recombinant 5-HT2B receptor (Homo sapiens, UniProt P41595); test: Affinity for 5-HT2B receptor binding sites (competitive radioligand binding, [3H]mesulergine); conditions: membranes of CHO with h5-HT2B, * = tested as hydrochloride salt
T3 construct: expressed in transfected cells; host or cells: CHO
Description: as §1, §2, §3, §4

[3] = target: T4, human recombinant 5-HT2A receptor (Homo sapiens, UniProt P28223); test: Affinity for 5-HT2A receptor binding sites (competitive radioligand binding, [3H]ketanserin); conditions: membranes of NIH3T3 with h5-HT2A, * = tested as hydrochloride salt
T4 construct: expressed in transfected cells; host or cells: NIH3T3
Description: as §1, §2, §3, §4

[4] = target: T5, human recombinant 5-HT6 receptor (Homo sapiens, UniProt P50406); test: Affinity for 5-HT6 receptor binding sites (competitive radioligand binding, [3H]LSD); conditions: membranes of HEK-293 with h5-HT6, * = tested as hydrochloride salt
T5 construct: expressed in transfected cells; host or cells: HEK-293
Description: as §1, §2
3. Affinity for 5-HT6 Receptor Binding Sites
Receptor binding was performed using the human recombinant 5-HT6 (GB: BC0794995) receptor. The affinity of the compounds for the human 5-HT6 receptor was evaluated by competitive radioligand binding assays using [^3H]LSD. The assays were performed on membranes prepared from HEK-293 stably transfected with h5-HT6. Non-specific binding was estimated in the presence of 1 μM clozapine.

T3 sequence (P41595 whole entry): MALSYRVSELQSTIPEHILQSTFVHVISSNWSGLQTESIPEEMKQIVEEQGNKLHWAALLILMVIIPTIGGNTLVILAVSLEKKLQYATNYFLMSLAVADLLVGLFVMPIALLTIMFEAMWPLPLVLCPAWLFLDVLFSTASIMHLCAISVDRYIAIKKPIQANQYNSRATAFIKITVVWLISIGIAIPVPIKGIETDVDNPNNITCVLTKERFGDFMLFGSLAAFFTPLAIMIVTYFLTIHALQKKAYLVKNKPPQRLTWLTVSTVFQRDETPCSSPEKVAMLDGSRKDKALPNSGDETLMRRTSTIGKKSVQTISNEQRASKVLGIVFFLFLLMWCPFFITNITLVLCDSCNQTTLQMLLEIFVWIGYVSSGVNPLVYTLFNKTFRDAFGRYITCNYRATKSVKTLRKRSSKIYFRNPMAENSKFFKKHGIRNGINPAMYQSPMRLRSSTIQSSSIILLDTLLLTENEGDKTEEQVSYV
T4 sequence (P28223 whole entry): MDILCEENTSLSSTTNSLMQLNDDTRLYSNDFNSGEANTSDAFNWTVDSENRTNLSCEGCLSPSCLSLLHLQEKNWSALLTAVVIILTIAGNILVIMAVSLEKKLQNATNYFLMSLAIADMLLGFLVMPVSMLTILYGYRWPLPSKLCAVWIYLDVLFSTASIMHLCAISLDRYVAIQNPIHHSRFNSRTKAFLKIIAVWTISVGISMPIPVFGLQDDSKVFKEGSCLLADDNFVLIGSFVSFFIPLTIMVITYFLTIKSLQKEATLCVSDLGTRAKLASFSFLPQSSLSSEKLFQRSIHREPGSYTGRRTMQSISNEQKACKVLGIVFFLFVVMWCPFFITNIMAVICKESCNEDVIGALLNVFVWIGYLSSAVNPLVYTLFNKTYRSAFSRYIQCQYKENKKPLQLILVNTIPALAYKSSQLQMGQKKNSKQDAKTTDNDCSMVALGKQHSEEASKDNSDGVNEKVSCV
T5 sequence (P50406 whole entry): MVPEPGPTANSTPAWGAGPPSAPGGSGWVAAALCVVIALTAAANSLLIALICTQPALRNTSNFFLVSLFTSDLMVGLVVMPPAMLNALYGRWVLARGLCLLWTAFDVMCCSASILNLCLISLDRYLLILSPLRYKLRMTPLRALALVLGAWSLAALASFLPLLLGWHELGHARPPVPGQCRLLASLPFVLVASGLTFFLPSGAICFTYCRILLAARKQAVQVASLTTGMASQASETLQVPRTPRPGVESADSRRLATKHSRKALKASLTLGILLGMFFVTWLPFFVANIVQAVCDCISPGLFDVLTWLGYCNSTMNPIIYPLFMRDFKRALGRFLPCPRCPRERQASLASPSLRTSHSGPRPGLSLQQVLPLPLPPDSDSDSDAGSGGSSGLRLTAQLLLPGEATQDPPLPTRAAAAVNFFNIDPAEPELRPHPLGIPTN
T1 sequence (P32305 whole entry): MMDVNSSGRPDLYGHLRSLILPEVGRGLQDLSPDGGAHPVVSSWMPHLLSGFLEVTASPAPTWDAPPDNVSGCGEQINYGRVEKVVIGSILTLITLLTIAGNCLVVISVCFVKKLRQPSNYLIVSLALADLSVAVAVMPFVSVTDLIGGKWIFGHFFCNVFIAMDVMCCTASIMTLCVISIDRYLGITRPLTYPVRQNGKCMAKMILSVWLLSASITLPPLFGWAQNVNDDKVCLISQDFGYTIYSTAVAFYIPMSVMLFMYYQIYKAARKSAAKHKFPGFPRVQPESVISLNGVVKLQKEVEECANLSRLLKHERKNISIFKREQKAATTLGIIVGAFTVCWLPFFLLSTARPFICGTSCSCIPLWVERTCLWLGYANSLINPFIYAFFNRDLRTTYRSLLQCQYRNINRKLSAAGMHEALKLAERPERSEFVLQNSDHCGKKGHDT

| SMILES | Ki (rat 5-HT7a receptor) | Ki [1] | Ki [2] | Ki [3] | Ki [4] |
| --- | --- | --- | --- | --- | --- |
| CCN(CC)c1nc2c(c(-c3ccc(F)cc3)n1)CNCCC2 [Example 15, Diethyl-[4-(4-fluoro-phenyl)-6,7,8,9-tetrahydro-5H-1,3,6-triaza-benzocyclohepten-2-yl]-amine] | > 10000 nM |  |  |  |  |
| CCN(CC)c1nc2c(c(-c3ccc(C)cc3)n1)CNCCC2 [Example 16, Diethyl-(4-p-tolyl-6,7,8,9-tetrahydro-5H-1,3,6-triaza-benzocyclohepten-2-yl)-amine] | 500 nM | 630 nM | 320 nM | 50 nM |  |
| CCN(CC)c1nc2c(c(-c3ccc(OC)cc3)n1)CNCCC2 [Example 17, Diethyl-[4-(4-methoxy-phenyl)-6,7,8,9-tetrahydro-5H-1,3,6-triaza-benzocyclohepten-2-yl]-amine] | > 10000 nM | 2500 nM | 630 nM | 900 nM |  |
| CCN(CC)c1nc2c(c(-c3ccc(C#N)cc3)n1)CNCCC2 [Example 18, 4-(2-Diethylamino-6,7,8,9-tetrahydro-5H-1,3,6-triaza-benzocyclohepten-4-yl)-benzonitrile] | > 10000 nM |  |  |  |  |
| Cc1ccc(-c2nc(N3CCCCC3)nc3c2CNCCC3)cc1 [Example 19, 2-Piperidin-1-yl-4-p-tolyl-6,7,8,9-tetrahydro-5H-1,3,6-triaza-benzocycloheptene] | > 10000 nM | 3160 nM | 1000 nM | 1500 nM |  |
| Fc1ccc(-c2nc(N3CCCCC3)nc3c2CNCCC3)cc1 [Example 20, 4-(4-Fluoro-phenyl)-2-piperidin-1-yl-6,7,8,9-tetrahydro-5H-1,3,6-triaza-benzocycloheptene hydrochloride] | > 10000 nM | 6310 nM | 790 nM | 300 nM |  |
| COc1ccc(-c2nc(N3CCCCC3)nc3c2CNCCC3)cc1 [Example 21, 4-(4-Methoxy-phenyl)-2-piperidin-1-yl-6,7,8,9-tetrahydro-5H-1,3,6-triaza-benzocycloheptene hydrochloride] | > 10000 nM |  |  |  |  |
| N#Cc1ccc(-c2nc(N3CCCCC3)nc3c2CNCCC3)cc1 [Example 22, 4-(2-Piperidin-1-yl-6,7,8,9-tetrahydro-5H-1,3,6-triaza-benzocyclohepten-4-yl)-benzonitrile hydrochloride] | > 10000 nM | > 10000 nM | 2510 nM | > 10000 nM |  |
| CCN(CC)c1nc2c(c(-c3ccc(F)cc3)n1)CCN(Cc1ccccc1)C2 [Example 23, [7-Benzyl-4-(4-fluoro-phenyl)-5,6,7,8-tetrahydro-pyrido[3,4-d]pyrimidin-2-yl]-diethyl-amine] | 620 nM | 2800 nM | 350 nM | 60 nM |  |
| CCN(CC)c1nc2c(c(-c3ccc(C)cc3)n1)CCN(Cc1ccccc1)C2 [Example 25, (7-Benzyl-4-p-tolyl-5,6,7,8-tetrahydro-pyrido[3,4-d]pyrimidin-2-yl)-diethyl-amine] | > 10000 nM | > 10000 nM | 620 nM | 190 nM |  |
| CCN(CC)c1nc2c(c(-c3ccc(OC)cc3)n1)CCN(Cc1ccccc1)C2 [Example 27, [7-Benzyl-4-(4-methoxy-phenyl)-5,6,7,8-tetrahydro-pyrido[3,4-d]pyrimidin-2-yl]-diethyl-amine] | > 10000 nM | > 10000 nM | 660 nM | 1700 nM |  |
| CCN(CC)c1nc2c(c(-c3ccc(C#N)cc3)n1)CCN(Cc1ccccc1)C2 [Example 29, 4-(7-Benzyl-2-diethylamino-5,6,7,8-tetrahydro-pyrido[3,4-d]pyrimidin-4-yl)-benzonitrile] | > 10000 nM | > 10000 nM | 1100 nM | 650 nM |  |
| Fc1ccc(-c2nc(N3CCCCCC3)nc3c2CCN(Cc2ccccc2)C3)cc1 [Example 31, 2-Azepan-1-yl-7-benzyl-4-(4-fluoro-phenyl)-5,6,7,8-tetrahydro-pyrido[3,4-d]pyrimidine] | > 10000 nM | 3200 nM | 1600 nM | 230 nM |  |
| Fc1ccc(-c2nc(N3CCCCCC3)nc3c2CCNC3)cc1 [Example 32, 2-Azepan-1-yl-4-(4-fluoro-phenyl)-5,6,7,8-tetrahydro-pyrido[3,4-d]pyrimidine] | 270 nM | 110 nM | 30 nM | 9 nM |  |
| Cc1ccc(-c2nc(N3CCS(=O)(=O)CC3)nc3c2CCNCC3)cc1Cl [Example 92, 4-(3-Chloro-4-methyl-phenyl)-2-(1,1-dioxo-1λ^6-thiomorpholin-4-yl)-6,7,8,9-tetrahydro-5H-pyrimido[4,5-d]azepine] |  | 2040 nM | 950 nM | 1140 nM | 85 nM |
| Cc1ccc(-c2nc(N3CCOC[C@@H]3C)nc3c2CCNCC3)cc1Cl [Example 93, 4-(3-chloro-4-methylphenyl)-6,7,8,9-tetrahydro-2-[(3S)-3-methyl-4-morpholinyl]-5H-pyrimido[4,5-d]azepine] |  | 28 nM | 18 nM | 150 nM | 9 nM |
| Cc1ccc(-c2nc(N3CCOC[C@@H]3C)nc3c2CCNCC3)cc1 [Example 94, 6,7,8,9-tetrahydro-2-[(3S)-3-methyl-4-morpholinyl]-4-(4-methylphenyl)-5H-pyrimido[4,5-d]azepine] |  | 15 nM | 15 nM | 25 nM | 8 nM |
| C[C@H]1COCCN1c1nc2c(c(-c3cnc4ccccc4c3)n1)CCNCC2 [Example 95, 6,7,8,9-tetrahydro-2-[(3S)-3-methyl-4-morpholinyl]-4-(3-quinolinyl)-5H-pyrimido[4,5-d]azepine] |  | 810 nM | 580 nM | 150 nM | 7 nM |
| C[C@H]1COCCN1c1nc2c(c(-c3ccc(Cl)cc3)n1)CCNCC2 [Example 96, 4-(4-chlorophenyl)-6,7,8,9-tetrahydro-2-[(3S)-3-methyl-4-morpholinyl]-5H-pyrimido[4,5-d]azepine] |  | 69 nM | 35 nM | 100 nM | 13 nM |
| Cc1ccc(-c2nc(N3CCOC[C@@H]3C)nc3c2CCNCC3)cc1F [Example 97, 4-(3-fluoro-4-methylphenyl)-6,7,8,9-tetrahydro-2-[(3S)-3-methyl-4-morpholinyl]-5H-pyrimido[4,5-d]azepine] |  | 92 nM | 39 nM | 400 nM | 23 nM |
| C[C@H]1COCCN1c1nc2c(c(-c3cc4ccccc4o3)n1)CCNCC2 [Example 98, 4-(2-benzofuranyl)-6,7,8,9-tetrahydro-2-[(3S)-3-methyl-4-morpholinyl]-5H-pyrimido[4,5-d]azepine] |  | 140 nM | 25 nM | 99 nM | 13 nM |
| C[C@@H]1COCCN1c1nc2c(c(-c3cnc4ccccc4c3)n1)CCNCC2 [Example 99, 6,7,8,9-tetrahydro-2-[(3R)-3-methyl-4-morpholinyl]-4-(3-quinolinyl)-5H-pyrimido[4,5-d]azepine] |  | 490 nM | 280 nM | 1440 nM | 30 nM |
| Cc1ccc(-c2nc(N3CCOC[C@H]3C)nc3c2CCNCC3)cc1 [Example 100, 6,7,8,9-tetrahydro-2-[(3R)-3-methyl-4-morpholinyl]-4-(4-methylphenyl)-5H-pyrimido[4,5-d]azepine] |  | 4 nM | 8 nM | 21 nM | 6 nM |
